Like-named read-outs stand apart in the source and are kept apart here.
Molecular target: T1, CIB1 and αIIb interaction (CIB1-GST : F-αIIb peptide) (Homo sapiens, UniProt Q99828)
T1 construct: made in house; host or cells: BL-21 plus RIL cells (E. coli)
T1 sequence (Q99828 1-191): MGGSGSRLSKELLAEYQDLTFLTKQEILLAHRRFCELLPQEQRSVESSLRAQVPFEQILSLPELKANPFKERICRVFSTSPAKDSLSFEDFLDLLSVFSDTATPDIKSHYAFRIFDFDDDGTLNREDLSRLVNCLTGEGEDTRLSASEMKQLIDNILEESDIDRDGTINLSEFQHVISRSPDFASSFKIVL
Experiment: FP assay, 1536-well qHTS format (primary and confirmatory screen)
Assay type: binding
Details: for Curve Class: negative sign = inhibitory curve; for IC50: read-out: IC50

[1] = qHTS primary screen of LOPAC/NPACT libraries, negative = inhibition
[2] = qHTS primary screen of LOPAC/NPACT libraries
[3] = qHTS primary screen hits, Table S2, negative = inhibition
[4] = qHTS primary screen hits, Table S2, several classes where COUNT > 1
[5] = qHTS primary screen hits, Table S2
[6] = qHTS FP screen hits, Table S2, negative = inhibition

COc1cc(O)c2c(c1)/C=C/C[C@H](O)[C@H](O)C(=O)/C=C\C[C@H](C)OC2=O [NCGC00186421-07]
Efficacy (%) [1]: -26% | Curve Class [2]: -2.4 | IC50 [2]: 25.1 µM

C/C=C/C=C/c1cc2c(C=O)c(O)c(CC=C(C)C)cc2o1 [NCGC00386103-01]
Efficacy (%) [1]: -28% | Curve Class [2]: -2.4 | IC50 [2]: 63.1 µM

O=C(O)C(F)(F)F.OCc1ccc(-c2ccc3ncnc(NCCc4c[nH]cn4)c3c2)o1 [NCGC00188669-01]
Efficacy (%) [3]: -40% | Curve Class [4]: -2.4 | IC50 [5]: 44.7 µM

N#C/C(=C\c1ccc(O)c(O)c1)C(=O)NCCc1ccccc1 [NCGC00016029-05]
Efficacy (%) [1]: -15% | Curve Class [2]: -1.2 | IC50 [2]: 7.9 µM

N#CCc1cc(-c2ccc(F)c(F)c2)nn1-c1nc(C(=O)O)cs1.O=C(O)C(F)(F)F [NCGC00356771-02]
Efficacy (%) [3]: -16% | Curve Class [5]: -2.4 | IC50 [5]: 50.1 µM

Cc1ccc(OCCn2c3c(c4ccccc42)CN(C(=O)C2CCCCC2)CC3)cc1.O=C(O)C(F)(F)F [NCGC00238717-01]
Efficacy (%) [3]: -46% | Curve Class [4]: -2.4 | IC50 [5]: 56.2 µM

O=C(O)C(F)(F)F.O=C(c1ccc2c(c1)ncn2-c1ccc(C(F)(F)F)cc1)N1CCCCC1 [NCGC00262230-01]
Efficacy (%) [3]: -43% | Curve Class [5]: -2.2 | IC50 [5]: 44.7 µM

COc1ccc(NC(=O)c2cccs2)cn1.O=C(O)C(F)(F)F [NCGC00229661-01]
Efficacy (%) [3]: -41% | Curve Class [4]: -2.2 | IC50 [5]: 50.1 µM

O=c1[nH]c2cc([N+](=O)[O-])c([N+](=O)[O-])cc2[nH]c1=O [NCGC00015319-06]
Efficacy (%) [3]: -48% | Curve Class [5]: -2.2 | IC50 [5]: 31.6 µM

CC(=O)O[C@@H](CO[C@@H]1O[C@H](CO)[C@H](O)[C@H](O)[C@H]1O)[C@]1(C)C=C2CC[C@@H]3C(C)(C)[C@@H](O)CC[C@@]3(C)[C@@H]2CC1 [NCGC00347395-02]
Efficacy (%) [1]: -23% | Curve Class [2]: -2.4 | IC50 [2]: 15.8 µM

CCOC(=O)C1=C(C)NC(C)=C(C(=O)OC)C1c1cccc([N+](=O)[O-])c1 (centres unmarked) [NCGC00015713-10]
Efficacy (%) [1]: -23% | Curve Class [2]: -2.4 | IC50 [2]: 63.1 µM

C=C1C(=O)O[C@H]2C3=C(C)CCC[C@]3(C)C(=O)C[C@@H]12 [NCGC00168931-02]
Efficacy (%) [1]: -27% | Curve Class [2]: -2.4 | IC50 [2]: 56.2 µM

c1ccc(C2Nc3cccc4cccc(c34)N2)cc1 [NCGC00182927-03]
Efficacy (%): -29% | Curve Class [5]: -2.4 | IC50 [5]: 50.1 µM

CCOC(=O)Nc1ccc(NCc2ccc(F)cc2)nc1N.O=C(O)/C=C\C(=O)O [NCGC00015451-04]
Efficacy (%) [1]: -53% | IC50 [2]: 39.8 µM

CCCCCCCCCCCCCCCC[n+]1ccccc1.[Br-] [NCGC00091023-06]
Efficacy (%) [3]: -31% | Curve Class [4]: -2.4 | IC50 [5]: 89.1 µM

O=C(O)C(F)(F)F.O=C(O)c1ccc(O)c2ncc(N3CCN(Cc4ccccc4)CC3)cc12 [NCGC00241045-04]
Efficacy (%) [3]: -24% | Curve Class [4]: -2.4 | IC50 [5]: 56.2 µM

Cc1cc(C)nc(NC(=S)N2CCN(c3ccc4nonc4c3)CC2)c1.O=C(O)C(F)(F)F [NCGC00244156-01]
Efficacy (%) [3]: -25% | Curve Class [4]: -2.4 | IC50 [5]: 50.1 µM

COc1ccc(CNC(=O)c2ccc3c(c2)NC(=O)c2ccccc2S3)cc1 [NCGC00241665-01]
Efficacy (%) [3]: -27% | Curve Class [5]: -2.4 | IC50 [5]: 56.2 µM

NC(=O)N/N=C/c1ccc([N+](=O)[O-])o1 [NCGC00090686-07]
Efficacy (%) [3]: -26% | Curve Class [5]: -2.4 | IC50 [5]: 112 µM

CC(C)c1cc(F)cc2c1C[C@](CCN(C)CCCc1nc3ccccc3[nH]1)(OC(=O)C1CC1)CC2 [NCGC00162214-02]
Efficacy (%) [1]: -30% | Curve Class [2]: -2.2 | IC50 [2]: 56.2 µM

C=C1C(=O)O[C@@H]2C/C(C)=C\C(=O)/C=C(\C)[C@@H](OC(=O)/C(C)=C\C)[C@H](O)[C@@H]12 [NCGC00380290-01]
Efficacy (%) [1]: -23% | Curve Class [2]: -1.4 | IC50 [2]: 4.5 µM

C=CCn1c(=O)c2c(nc(-c3ccc(S(=O)(=O)O)cc3)n2C)n(C)c1=O [NCGC00015008-05]
Efficacy (%) [1]: -20% | Curve Class [2]: -2.2 | IC50 [2]: 25.1 µM

CCCN1C[C@H](CSC)C[C@@H]2c3cccc4[nH]cc(c34)C[C@H]21 [NCGC00017366-05]
Efficacy (%) [1]: -29% | Curve Class [2]: -2.2 | IC50 [2]: 50.1 µM

Cc1cc(SCc2sc(-c3ccc(Cl)cc3)nc2C)ccc1OCC(=O)O.O=C(O)C(F)(F)F [NCGC00319056-01]
Efficacy (%) [3]: -32% | Curve Class [5]: -2.4 | IC50 [5]: 56.2 µM

COC(=O)CC1OC(C)C2=C(O)c3c(O)cccc3C(=O)C23OC13 (centres unmarked) [NCGC00381362-01]
Efficacy (%) [1]: -22% | Curve Class [2]: -2.4 | IC50 [2]: 25.1 µM

C[C@@]1(C2CCCC2)Cc2cc(OCC(=O)O)c(Cl)c(Cl)c2C1=O [NCGC00094034-06]
Efficacy (%) [1]: -28% | Curve Class [2]: -2.2 | IC50 [2]: 25.1 µM

Cc1c2c(=O)n(-c3ccccc3)[nH]c2cc(=O)n1Cc1ccncc1.O=C(O)C(F)(F)F [NCGC00248478-01]
Efficacy (%) [3]: -31% | Curve Class [4]: -2.4 | IC50 [5]: 50.1 µM

C=C1C(=O)OC2/C=C(\C)CC/C=C(\C)CC(OC(C)=O)C12 (centres unmarked) [NCGC00385946-01]
Efficacy (%) [1]: -21% | Curve Class [2]: -1.4 | IC50 [2]: 11.2 µM

CCOC(=O)C1=C(C)NC(C)=C(C(=O)OCC)C1c1c(F)c(F)c(F)c(F)c1F [NCGC00186027-01]
Efficacy (%) [1]: -13% | Curve Class [2]: -1.2 | IC50 [2]: 6.3 µM

COc1cc(/C=C(\C#N)C(=O)Nc2nnc(C(F)(F)F)s2)ccc1OCc1ccc(C(F)(F)F)cc1C(F)(F)F [NCGC00165952-02]
Efficacy (%) [1]: -19% | Curve Class [2]: -1.4 | IC50 [2]: 5.6 µM

Cc1cc2nc3c(=O)[nH]c(=O)nc-3n(C[C@H](O)[C@H](O)[C@H](O)CO)c2cc1C [NCGC00091288-05]
Efficacy (%) [3]: -134% | IC50 [5]: 4 µM

CCCCCCCCOc1ccccc1C(=O)Nc1ccc(C(=O)OCC[N+](C)(CC)CC)cc1.[Br-] [NCGC00163507-03]
Efficacy (%) [6]: -39% | Curve Class (qHTS FP screen hits, Table S2, one class per curve where COUNT > 1): -1.2 | IC50 (qHTS FP screen hits, Table S2): 22.4 µM

O=C(Nc1nc(-c2ccccc2)cs1)c1ccncc1NS(=O)(=O)c1ccc(F)cc1.O=C(O)C(F)(F)F [NCGC00344931-02]
Efficacy (%) [3]: -38% | IC50 [5]: 53.2 µM

CCN1CCc2nc(N)oc2CC1.Cl [NCGC00015131-04]
Efficacy (%) [1]: -13% | Curve Class [2]: -2.4 | IC50 [2]: 39.8 µM

Cl.O=c1cc(CN2CCOCC2)occ1OCCCCCSc1ccnc2cc(C(F)(F)F)ccc12 [NCGC00188866-05]
Efficacy (%) [1]: -26% | Curve Class [2]: -2.4 | IC50 [2]: 39.8 µM

N[C@@H](CCC(=O)N[C@H](CSN=O)C(=O)NCC(=O)O)C(=O)O [NCGC00094150-03]
Efficacy (%) [1]: -13% | Curve Class [2]: -1.2 | IC50 [2]: 12.6 µM

Cl.O=C(O)c1csc(-n2nc(-c3ccc(F)c(F)c3)c(Cc3ccccc3)c2O)n1 [NCGC00356264-02]
Efficacy (%) [3]: -25% | Curve Class [4]: -2.4 | IC50 [5]: 79.4 µM

CN(C)c1cccc(N2CCN(c3nn4c(=O)c5ccccc5nc4s3)CC2)c1.Cl [NCGC00187811-01]
Efficacy (%) [3]: -35% | Curve Class [5]: -2.4 | IC50 [5]: 50.1 µM

CC(C)(Sc1ccc(CCN(CCCCC2CCCCC2)C(=O)NC2CCCCC2)cc1)C(=O)O [NCGC00015480-08]
Efficacy (%) [1]: -28% | Curve Class [2]: -1.4 | IC50 [2]: 12.6 µM

CC/C(=C(/CC)c1ccc(O)cc1)c1ccc(O)cc1 [NCGC00090749-11]
Efficacy (%) [3]: -29% | Curve Class [4]: -2.4 | IC50 [5]: 42.9 µM

C=C1C(=O)[C@@]23C(CC[C@@H]1[C@H]2O)[C@@]12CO[C@]3(O)[C@@H](O)[C@@H]1C(C)(C)CC[C@@H]2O (some centres unmarked) [NCGC00346595-01]
Efficacy (%) [6]: -48% | IC50 (qHTS FP screen hits, Table S2): 33.3 µM

Cc1cc(-c2cc(O)ccc2Cl)cc2nnc(Nc3ccc(OCCN4CCCC4)cc3)nc12.Cl [NCGC00378690-01]
Efficacy (%) [1]: -25% | Curve Class [2]: -2.4 | IC50 [2]: 56.2 µM

N#CSc1cc(SC#N)c(N)nc1N [NCGC00371134-01]
Efficacy (%) [1]: -31% | Curve Class [2]: -2.4 | IC50 [2]: 14.1 µM

CC(=O)N[C@@H](Cc1c[nH]c2ccccc12)C(=O)OCc1cc(C(F)(F)F)cc(C(F)(F)F)c1 [NCGC00024832-04]
Efficacy (%) [1]: -16% | Curve Class [2]: -1.2 | IC50 [2]: 39.8 µM

Cc1ccnc(NC(=S)N2CCc3ccccc3C2)c1.O=C(O)C(F)(F)F [NCGC00241083-01]
Efficacy (%) [3]: -23% | Curve Class [4]: -2.4 | IC50 [5]: 79.4 µM

Nc1ccncc1N [NCGC00167560-02]
Efficacy (%) [3]: -26% | Curve Class [4]: -2.4 | IC50 [5]: 79.4 µM

CCOC(=O)OC(C)OC(=O)c1csc(-n2nc(-c3ccc(F)c(F)c3)cc2O)n1.O=C(O)C(F)(F)F (centres unmarked) [NCGC00356024-01]
Efficacy (%) [3]: -35% | Curve Class [4]: -2.4 | IC50 [5]: 79.4 µM

Cc1ccc(S(=O)(=O)Nc2ccc(O)c3ccccc23)c(C)c1.O=C(O)C(F)(F)F [NCGC00273983-01]
Efficacy (%) [3]: -34% | Curve Class [4]: -2.4 | IC50 [5]: 56.2 µM

CN(C)c1ccc(-c2ccnc(O)c2N)cc1 [NCGC00181386-01]
Efficacy (%) [3]: -24% | Curve Class [4]: -2.4 | IC50 [5]: 79.4 µM

From publication PMC11249646, “Small-Molecule Disruptors of the Interaction between Calcium- and Integrin-Binding Protein 1 and Integrin αIIbβ3 as Novel Antiplatelet Agents” (ACS Pharmacology & Translational Science, 2024)
